Laboratory results: patent US10947199B2, “Spiro and cyclic bis-benzylidene proteasome inhibitor for the treatment of cancer, diabetes and neurological disorders” (UP THERAPEUTICS, INC., priority 2017, dated 2021)
Entries after “also recorded” stand apart in the source; their conditions may differ.

Assays:
[1] = test system: CHOP-10 mRNA in ES2 cells; test: CHOP-10 mRNA expression in ES2 cells; format: cell-based, human; conditions: 12 h
Source text: Accumulation of unfolded proteins upon the inhibition of proteasome function rapidly induces endoplasmic reticulum (ER) stress. ER stress triggers an evolutionarily conserved series of signal-transduction events, which constitute the unfolded protein response (UPR). The UPR attempts to restore protein homeostasis by eliminating the accumulated unfolded proteins in the ER; however, if protein homeostasis cannot be restored, apoptosis is triggered. C/EBP homologous protein (CHOP) is elevated at the onset of UPR-induced programmed cell death.

RPMI8226-R = test: MTT cell viability assay, RPMI8226-R; format: cell-based; conditions: Multiple Myeloma, 24 or 48 or 72 hours
Procedure: (§1) Briefly cancer cells incubated with Up compounds for the period of 24 or 48 or 72 hours and the cell viability was measured using MTT assay. IC50 of compounds listed in Table1.

RPN13 = target: T1, RPN13 (Homo sapiens, UniProt Q16186); test: RA190B probe competition assay, OV2008 cell lysate; format: binding; conditions: compound 25 μM, RA190B 5 μM
T1 construct: HeLa cell lysate was pretreated with Up109 or Up117; endogenous in cells; host or cells: HeLa cell lysate
T1 sequence (Q16186 whole entry): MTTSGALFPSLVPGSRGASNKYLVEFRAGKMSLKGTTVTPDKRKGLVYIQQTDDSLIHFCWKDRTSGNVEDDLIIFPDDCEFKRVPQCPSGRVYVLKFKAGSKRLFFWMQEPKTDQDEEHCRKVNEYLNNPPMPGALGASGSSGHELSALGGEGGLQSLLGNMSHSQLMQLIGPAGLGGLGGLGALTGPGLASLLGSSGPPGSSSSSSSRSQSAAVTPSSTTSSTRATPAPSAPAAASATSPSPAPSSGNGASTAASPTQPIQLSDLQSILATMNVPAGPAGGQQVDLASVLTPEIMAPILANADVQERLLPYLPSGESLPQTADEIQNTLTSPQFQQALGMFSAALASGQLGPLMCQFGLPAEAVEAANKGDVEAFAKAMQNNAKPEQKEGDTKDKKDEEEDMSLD
Procedure: To identify the cellular target, a competition assay was performed using RA190B probe. […] We used RA190B as a probe to determine the Up compounds binding to RPN13. OV2008 cell lysate was pretreated with Up compounds (25 μM) and then subsequently treated with RA190B (5 μM). Lysate was denatured under reduced conditions and proteins were separated on a gel and probed with HRP Streptavidin.

OV2008 cancer cells = test: Colony formation, OV2008; format: cell-based; conditions: corresponding to IC50 values
[2] = test system: proteasome (4UbFL reporter) in muscle cells; test: 4UbFL reporter in muscle of live mice, IVIS imaging; format: in vivo; conditions: Balb/c mice, i.p. 40 mg/Kg; imaged 4 h, 24 h and 48 h post treatment
Procedure: To test for proteasome inhibition by Up109 in vivo, muscle cells of live Balb/c mice transduced with the 4UbFL reporter DNA construct by electroporation. After i.p. injection of luciferin, the enzymic activity of luciferase in the transfected muscle tissue was visualized as bioluminescence using an IVIS imager. At two days post electroporation of the 4UbFL DNA, mice were imaged and base line luminescence recorded. The control group (n=5) of mice was treated i.p. with vehicle alone and another group (n=5) treated i.p with Up109 (40 mg/Kg). After 4 h, 24 h and 48 h post treatment mice were again imaged and luminescence was quantified (FIG. 9).

[3] = test system: proteasome function (4Ub-FL reporter) in 293TT cells; test: 4Ub-FL reporter assay of proteasome function in live cells; format: cell-based; conditions: 293TT cells expressing 4Ub-FL
Source text: To measure proteasome function in live cells, we utilized an engineered ubiquitin-firefly (4Ub-FL) reporter in which four copies of mutant ubiquitin (ubiquitin G76V) gene are fused to the N-terminus of the firefly luciferase (FL) gene. The results of this experiment, shown in FIG. 1, reveal that the 4Ub-FL reporter protein is rapidly degraded by the proteasome.
To measure proteasome function in live cells, we utilized an engineered ubiquitin-firefly (4Ub-FL) reporter in which four copies of mutant ubiquitin (ubiquitin G76V) gene are fused to the N-terminus of the firefly luciferase (FL) gene. The 4Ub-FL reporter protein is rapidly degraded by the proteasome (FIG. 6). […] Treatment of Up109 produced a greater increase in the 4Ub-FL bioluminescence in a dose dependent manner.

MDA-MB-231 = test: MTT cell viability assay, MDA-MB-231; format: cell-based; conditions: MDA-MB-231, Triple Negative Breast Cancer, 24 or 48 or 72 hours
Procedure: as §1

SMILES: C=CC(=O)N1CCC2(CC1)C(=Cc1ccc([N+](=O)[O-])cc1)C(=O)C2=Cc1ccc([N+](=O)[O-])cc1 [Up109]
- CHOP-10 mRNA expression [1]: rapidly up-regulated
- IC50 (RPMI8226-R): 0.061 µM
- competition with RA190B for binding to RPN13 (RPN13): Disappearance of RA190B labeling
- colony formation (OV2008 cancer cells): significantly blocked colony formation
- 4UbFL reporter stabilization in vivo (bioluminescence) [2]: Stabilized
- increase in 4Ub-FL bioluminescence compared to before treatment [3]: thirteen-fold increase
- 4Ub-FL reporter stabilization / bioluminescence increase (qualitative) ([3]; dose dependent): greater increase in the 4Ub-FL bioluminescence than RA190; also recorded: stabilization and an increase in luciferase activity
- IC50 (MDA-MB-231): 0.038 µM
